{"source": "paper PMC11173301", "about": "“On the Cholesterol Raising Effect of Coffee Diterpenes Cafestol and 16-O-Methylcafestol: Interaction with Farnesoid X Receptor” (International Journal of Molecular Sciences, 2024)", "target": "T1, FXR-LBD (FXR-WT; stabilized mutant FXR-CCEE) (Homo sapiens, UniProt Q96RI1)", "T1 construct": "gene NR1H4; plasmid from Prof; Jinsong Liu; CCEE = C432E/C466E", "T1 sequence (Q96RI1 225-472 isoform Q96RI1-2)": "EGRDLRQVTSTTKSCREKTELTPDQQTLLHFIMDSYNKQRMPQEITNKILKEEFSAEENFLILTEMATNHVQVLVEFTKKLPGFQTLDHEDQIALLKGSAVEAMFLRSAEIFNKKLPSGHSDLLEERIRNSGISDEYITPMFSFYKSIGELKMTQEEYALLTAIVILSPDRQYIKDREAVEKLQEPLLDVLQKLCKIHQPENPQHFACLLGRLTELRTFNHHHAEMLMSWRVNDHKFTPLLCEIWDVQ", "test": "intrinsic fluorescence titration, Stern-Volmer", "assay_type": "binding", "conditions": "[…] protein, phosphate pH […] NaCl, […] glycerol, […] °C; no inner filter correction", "source_text": "intrinsic fluorescence titration, Stern-Volmer on FXR-LBD (FXR-WT; stabilized mutant FXR-CCEE) | With GG, the numbers for the FXR-WT and the FXR-CCEE mutant were quite different"}
{"smiles": "C/C=C1\\C(=O)C[C@H]2[C@@H]3CCC4=CC(=O)CC[C@]4(C)[C@H]3CC[C@]12C", "note": "[guggulsterone]", "values": [{"measurement": "Stern-Volmer constant (KSV)", "value": "33650 ± 5000", "unit": "L/mol"}]}
